Results on two compounds are retold here after patent US20210401918A1, “COMPOSITION COMPRISING COMBINATION OF RED CLOVER EXTRACT AND HOPS EXTRACT FOR IMPROVEMENT OF MENOPAUSAL DISORDER” (NATURETECH CO. LTD., priority 2018, published 2021).

This assay deals with MCF-7 cells. The experiment in a line: MCF-7 cells proliferation assay (MTS). The format is cell-based, human. On the procedure: MCF-7 cells (human breast cancer cells) were obtained from the Korea Cell Line Bank and used. RPMI (Gibco, USA) medium containing 10% FBS (Gibco, USA) and 1% penicillin-streptomycin (Gibco, USA) was used as cell culture medium, and cells were cultured in 5% CO2, 37° C. incubator. The medium was replaced every two days, and cells were sub-cultured every 4-5 days. HUVECs (human umbilical vein endothelial cells) were obtained from LONZA and used. M200 (Gibco, USA) containing LSGS kit (Gibco, USA) was used as cell culture medium, and only cells at passage 3-5 were used for the experiment.
Estrogen-free medium, which was prepared by diluting phenol red-free RPMI (Gibco, USA) with 5% dextran-coated charcoal-stripped FBS (TCB, USA) and 1% penicillin-streptomycin, was used for the experiment. After reacting cells in the estrogen-free medium for 3 days, they were seeded in a 96-well plate at a concentration of 1.5×10^4 cells/well and incubated in 5% CO2, 37° C. incubator for 24 hours, and then were treated with the sample so that the final DMSO concentration was 0.1%. E2 was used as the positive control, and ICI 182,780 (Sigma Chem. Co., USA) was used as the negative control. After 72 hours of sample treatment, MTS analysis was performed using CellTiter 96®Aqueous One Solution (Promega, Germany) reagent. Each well was treated with 20 μl of MTS reagent, reacted in 5% CO2, 37° C. incubator for 3 hours, and the absorbance was measured at 490 nm using a microplate reader.
In order to ascertain whether each sample acts on the estrogen receptor to show a cell proliferation effect, the sample was treated together with the estrogen receptor inhibit ICI 182,780, and the results are shown in Table 9.

For the compound `C[C@]12CC[C@@H]3c4ccc(O)cc4C[C@@H](CCCCCCCCC[S+]([O-])CCCC(F)(F)C(F)(F)F)[C@H]3[C@@H]1CC[C@@H]2O` (stereo partly shown) [ICI 182,780], the “Proliferation (%) with ICI 182,780” value (Table 9, Control (sample 0 μg/ml) with ICI 182,780 alone) amounted to 86.55 ± 1.95%.
For `C[C@]12CC[C@@H]3c4ccc(O)cc4CC[C@H]3[C@@H]1CC[C@@H]2O` [Estradiol, 17β-estradiol], the “Proliferation (%)” value (Table 8, 1 nM, 72 hours, Control = 100) is 135.78 ± 2.83 %. Moreover, the “Proliferation (%) with ICI 182,780” value (Table 9, 1 nM, together with ICI 182,780) was 92.27 ± 2.04%. Further, the “Proliferation (%) without ICI 182,780” value (Table 9, 1 nM, without ICI 182,780) was 143.39 ± 10.46%.
